{
  "source": "patent US20190275035A1",
  "about": "“WNT ANTAGONISTS AND THEIR USE IN METHODS FOR TREATING MYOCARDIAL INFARCTION” (RUPRECHT-KARLS-UNIVERSITÄT HEIDELBERG, priority 2016, published 2019)",
  "system": "non-canonical WNT signaling in monocytes/macrophages",
  "assay": "PBMC-derived macrophages stimulated with supernatant of hypoxic AdWIF1-transfected cardiomyocytes",
  "assay_type": "cell-based, rat",
  "experimental": "Neonatal rat ventricular cardiomyocytes (NRVCMs) were isolated as previously described (Hagenmueller et al. 2010). After plating, NRVCMs were allowed to adhere overnight. Cardiomyocytes were cultured under hypoxic conditions (1.5% O2) for either four or 24 hours. Supernatant, RNA and proteins were harvested.\nPremade WIF1 and control adenovirus was purchased from Applied Biological Materials Inc. (Richmond, Canada). Adenovirus was amplified according to the manufacturer's instructions. Cardiomyocytes were transfected according to manufacturer's instructions. WIF1 overexpression was allowed to establish for 48 hours. Transfected cardiomyocytes were than cultured under hypoxic conditions as described above (see 1.9).\nAdult rats were euthanized using a high dose of pentobarbital. Blood was collected by cardiac puncture into EDTA-coated sample tubes. Mononuclear cells were separated using Histopaque 1083 (Sigma-Aldrich Chemie GmbH, Taufkirchen, Germany) according to manufacturer's instructions. Monocytes/macrophages were allowed to adhere to the cell culture dish for two hours. Non-adherent mononuclear cells were discarded. Macrophages were stimulated with supernatant of hypoxic cardiomyocytes for four hours.\nProtein lysates of primary cells and heart tissue were prepared using RIPA buffer supplemented with phosphatase/proteinase inhibitors (Cell Signaling Technology, Danvers, USA). Protein concentrations were measured using BCA assay (ThermoFisher Scientific, Waltham, USA). Equal amounts of protein were separated onto four 15% SDS-PAGE gradient gels (Bio-Rad Laboratories GmbH, München, Germany) and transferred to PVDF membranes (Merck Chemicals GmbH, Darmstadt, Germany). The following primary and HPR-conjugated secondary antibodies were used: monoclonal mouse anti-Active-β-Catenin (anti ABC), clone 8E7 (Merck Millipore, Darmstadt, Germany); monoclonal rabbit anti-JNK1+JNK2+JNK3 [EP1597Y] […] Protein expression was analyzed using ImageJ. Protein bands were normalized to GAPDH (respectively actin) loading control for quantification. […]",
  "key": {"[1]": {"conditions": "supernatant of WIF1-overexpressing cardiomyocytes vs control cells, FIG. 6B"}},
  "data": [
    {"substance": "WIF1: cardiomyocyte-derived WIF1 in supernatant of hypoxic cardiomyocytes transfected with WIF1 adenovirus (AdWIF1)", "values": [
      {"measurement": "transcription level of pro-inflammatory cytokine IL1β", "setting": "[1]", "value": "reduced"},
      {"measurement": "transcription level of pro-inflammatory cytokine IL6", "setting": "[1]", "value": "reduced"},
      {"measurement": "JNK phosphorylation in isolated monocytes/macrophages", "setting": "supernatant of hypoxic WIF1-overexpressing cardiomyocytes vs control supernatant, FIG. 6A", "value": "significantly reduced"}
    ]}
  ]
}
